The values that follow come from patent US20250129067A1 (Progentos Therapeutics, Inc., priority 2021, published 2025).

The test system of data set [1] is GPR17+ cells (newly differentiated oligodendrocytes). The data set is described as follows: In vivo OPC differentiation, GPR17+ cells in brain. The settings on record: for fold induction at 10 mg/kg / fold induction at 3 mg/kg / fold induction at 3.3 mg/kg / fold induction at 30 mg/kg: Mus musculus, po, 24 h, read-out: GPR17 Fold Induction (Over Vehicle).
Description: The ability of newly constructed compounds to drive OPC differentiation and myelination in vivo was tested. The ability of these compounds to drive OPC differentiation in vivo was tested using GPR17 as an indicator of newly differentiated oligodendrocytes.
Compounds were delivered PO or IP either QD or BID. Mice were dosed once, transiently, or continuously through the treatment period, which ranged from 1-3 days.
Mice were euthanized by isoflurane exposure and transcardially perfused with 14 mL of PBS (Sigma Cat #P4417-50TAB) followed by 22 mL of 3.2% paraformaldehyde in PBS. The brains were removed and postfixed for a minimum of 24 hours in 20 mL of 3.2% paraformaldehyde.
50-micron floating sections were cut using a Leica VT1200S vibratome. Every 24th section, extending through the antero-posterior extent of the brain, was stained. The selected brain sections were washed three times in PBS for 3 minutes each. The floating sections were incubated in the primary antibodies (see Table 10, below) diluted in blocking solution overnight at room temperature on a shaker. […] The next day, the sections were again washed three times in PBS for 3 minutes each and then incubated in the secondary antibodies diluted in blocking solution for 2 hours at room temperature on a shaker. After incubation, the sections were washed three times in PBS for 3 minutes each and mounted on a slide to be imaged using the Olympus Slide Scanner VS200.
The images were analyzed using a custom protocol developed using Visiopharm software to count GPR17+ cells. Cells were considered GPR17+ if they contained an Olig2 positive nucleus, and intense GPR 17 staining that filled their processes. Statistical analysis was done using one-way ANOVA with multiple comparison in GraphPad Prism software.
The subject of data set [2] is Oligodendrocyte progenitor cells (OPCs). The data set is described as follows: In vitro OPC differentiation assay, GPR17 expression (immunocytochemistry). The settings on record: 72 hours, fold change over vehicle; for GPR17 Fold Induction (Over Vehicle; 3 μM): 3 μM (10× concentration, final 0.3 μM); for GPR17 Fold Induction (Over Vehicle; 5 μM): 5 μM (10× concentration, final 0.5 μM).

The target of a further data set is PDGFRα (Homo sapiens (Human), UniProt P16234). The data set is described as follows: PDGFRα kinase enzyme assay (Promega PDGFRα Kinase Enzyme System, ADP-Glo). Format: biochemical. The following applies: 150 uM ATP. Put shortly:
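Purified PDGFRα protein (20 ng) reacted with test compound per the Promega kinase system protocol. ADP formed was measured by ADP-Glo luminescence against a standard curve, giving IC50.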
(In ADP-Glo the light output rises with the ADP produced.)

Data set [3] concerns Oligodendrocyte progenitor cells (OPCs). Put plainly: In vitro OPC differentiation assay, MBP expression (immunocytochemistry). The following applies: 72 hours of treatment; fold change over vehicle.
Description: Cortices from postnatal day (P) 1-3 rats were dissected and collected into ice cold Hank's Balanced Salt Solution (HBSS). […] Briefly, the cortical cell suspension was centrifuged and washed with buffer (0.5% BSA in PBS) and labeled with Anti-A2B5 MicroBeads (10 μL beads per 1×10^7 cells) for 15 minutes at 4° C. Following the incubation, cells were washed once with BSA buffer to remove unlabeled beads. A2B^5 positive cells were eluted on the column using the AutoMACS® (Miltenyi, as per manufacturer's protocol using “possel-s” program). Eluted cells were further washed twice with OPC growth media. Cell count was performed using Countess III cell counter (ThermoFisher; AMQAX2000) and cells were plated.
A2B5+ OPCs were plated in poly-d-lysine (PDL) coated T75 flask at a density of ˜3 million cells per flask. […] TrypLE was normalized by adding 10 mL growth media and cells were centrifuged at 1400 rpm for 10 minutes. […] The plates were allowed to sit at room temperature for 15 minutes to ensure proper dispersion of cells in a well. The plates were then transferred to the incubator (37° C.; 5% CO2).
Cells were then incubated for 72 hours at 37° C., 5% CO2 before immunostaining for MBP marker expression.
Following 72 hours of treatment, cells were fixed with 4% paraformaldehyde for 15 minutes then washed three times in DPBS. Prior to staining, cells were blocked for 15 minutes in 10% normal goat serum containing 1% BSA and 0.1% Triton X-100 in DPBS. Primary antibody (MBP @ 1:2000; Abcam AB7349) was applied to cells overnight at 4° C. in incubation solution containing 1% normal goat serum, 1% BSA, and 0.1% Triton X-100 in DPBS.
The number of differentiated MBP+ cells was normalized to the total nuclei count and percent differentiated MBP+ cells were reported.
The mark [4] stands for this setting: 11-point dose response, 10,000 nM to 0.169 nM, BLQ = below limit of quantitation, read-out: IC50 Values on PDGFRα Kinase Inhibition, IC50.

Values joined by “and” are separate entries in the source; they are usually repeats but may differ in a detail not shown here. Equal entries are not always repeated. Where two headings read alike, the source gives them in different places.

PDGFRα, sequence (P16234 24-1089): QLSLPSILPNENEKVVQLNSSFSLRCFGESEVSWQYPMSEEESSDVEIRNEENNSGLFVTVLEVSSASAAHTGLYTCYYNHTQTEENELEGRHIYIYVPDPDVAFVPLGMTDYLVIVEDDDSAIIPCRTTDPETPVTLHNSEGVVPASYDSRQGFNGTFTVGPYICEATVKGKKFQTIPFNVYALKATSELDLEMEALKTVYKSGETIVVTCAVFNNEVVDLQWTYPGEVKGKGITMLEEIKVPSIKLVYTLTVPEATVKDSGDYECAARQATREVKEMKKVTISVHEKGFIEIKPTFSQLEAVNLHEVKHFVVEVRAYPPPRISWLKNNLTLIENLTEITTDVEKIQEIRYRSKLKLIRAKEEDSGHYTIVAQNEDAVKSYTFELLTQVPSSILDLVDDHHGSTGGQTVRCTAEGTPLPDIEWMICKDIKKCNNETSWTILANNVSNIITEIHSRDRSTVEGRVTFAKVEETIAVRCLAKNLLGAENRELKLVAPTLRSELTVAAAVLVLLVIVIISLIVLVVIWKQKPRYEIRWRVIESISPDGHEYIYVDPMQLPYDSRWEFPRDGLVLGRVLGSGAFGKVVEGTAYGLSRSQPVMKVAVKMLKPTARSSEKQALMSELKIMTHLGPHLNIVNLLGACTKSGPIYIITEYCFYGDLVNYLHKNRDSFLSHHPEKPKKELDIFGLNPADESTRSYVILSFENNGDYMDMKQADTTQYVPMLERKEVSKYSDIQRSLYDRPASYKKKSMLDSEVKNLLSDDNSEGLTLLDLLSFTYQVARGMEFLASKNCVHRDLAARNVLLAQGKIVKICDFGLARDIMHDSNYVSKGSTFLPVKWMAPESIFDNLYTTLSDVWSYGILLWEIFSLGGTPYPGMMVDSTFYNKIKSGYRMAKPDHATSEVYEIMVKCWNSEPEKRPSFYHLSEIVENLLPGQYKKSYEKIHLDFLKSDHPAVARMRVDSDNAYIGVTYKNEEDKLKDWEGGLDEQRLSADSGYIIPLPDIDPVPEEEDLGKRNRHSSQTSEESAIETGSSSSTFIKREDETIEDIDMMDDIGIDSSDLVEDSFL

Usually IC50 stands for the concentration that inhibits the measured activity by half. With `COc1ccc(Cc2cnc(N3CCN(c4cnn5cc(-c6cnn(C)c6)ccc45)CC3)nc2)cc1` [Compound 254, 3-(4-(5-(4-methoxybenzyl)pyrimidin-2-yl)piperazin-1-yl)-6-(1-methyl-1H-pyrazol-4-yl)pyrazolo[1,5-a]pyridine], in data set [1], the fold induction at 10 mg/kg was 10.7. For the same compound, in data set [2], the “GPR17 Fold Induction (Over Vehicle; 3 μM)” value turned out to be 6.77. For the same compound, the half-maximal inhibitory concentration (IC50) on PDGFRα (setting [4]) was 267 nM. The “MBP Fold Induction (Over vehicle)” value in data set [3] is given as 4.04.

With `CC[C@@H](OC(=O)N1CCN(c2cnn3cc(-c4cnn(C)c4)ccc23)CC1)c1ccccc1` [Compound 80, (1R)-1-(Phenyl)propyl 4-[6-(1-methyl-1H-pyrazol-4-yl)pyrazolo[1,5-a]pyridin-3-yl]piperazine-1-carboxylate], the fold induction at 3 mg/kg in data set [1] came to 1.64. For the same compound, the “GPR17 Fold Induction (Over Vehicle; 3 μM)” value in data set [2] turned out to be 8.19. Also, the IC50 at PDGFRα (setting [4]) turned out to be 328 nM. The “MBP Fold Induction (Over vehicle)” value in data set [3] is given as 7.89.

For the compound `C[C@@H](OC(=O)N1CCN(c2cnn3cc(-c4cnn(C)c4)ncc23)CC1)c1ccccc1` [Compound 49, (R)-1-phenylethyl 4-(6-(1-methyl-1H-pyrazol-4-yl)pyrazolo[1,5-a]pyrazin-3-yl)piperazine-1-carboxylate], in data set [1], the fold induction at 3.3 mg/kg is 1.68. Further, in data set [2], the “GPR17 Fold Induction (Over Vehicle; 3 μM)” value came to 9.99 and the “GPR17 Fold Induction (Over Vehicle; 5 μM)” value is reported as 4.42. In addition, the IC50 on PDGFRα (setting [4]) is 59.5 nM. Moreover, the “MBP Fold Induction (Over vehicle)” value in data set [3] worked out at 2.45.

With `Cn1cc(-c2ccc3c(N4CCN(c5ncc(C(O)C6CCCCC6)cn5)CC4)cnn3c2)cn1` (stereo not drawn) [Compound 61, cyclohexyl(2-{4-[6-(1-methyl-1H-pyrazol-4-yl)pyrazolo[1,5-a]pyridin-3-yl]piperazin-1-yl}pyrimidin-5-yl)methanol], the fold induction at 3 mg/kg in data set [1] was found to be 2.36. Further, the “GPR17 Fold Induction (Over Vehicle; 3 μM)” value in data set [2] is listed as 10.09. At PDGFRα (setting [4]), the IC50 stood at 5.26 nM. The “MBP Fold Induction (Over vehicle)” value in data set [3] was 9.88.

Consider `C[C@H](OC(=O)N1CCN(c2cnn3cc(-c4cnn(C)c4)ccc23)CC1)c1ccc(Cl)cc1` [Compound 271, (1S)-1-(4-chlorophenyl)ethyl 4-[6-(1-methyl-1H-pyrazol-4-yl)pyrazolo[1,5-a]pyridin-3-yl]piperazine-1-carboxylate], for which the fold induction at 3 mg/kg in data set [1] is 0.83. In data set [2], the “GPR17 Fold Induction (Over Vehicle; 3 μM)” value is reported as 6.67. At PDGFRα (setting [4]), the IC50 was 1490 nM. In addition, in data set [3], the “MBP Fold Induction (Over vehicle)” value stood at 2.21.

Regarding `C[C@@H](OC(=O)N1CCN(c2cnn3cc(-c4cnn(C)c4)ccc23)CC1)c1ccc(C(F)(F)F)cc1` [Compound 313, (1R)-1-[4-(trifluoromethyl)phenyl]ethyl 4-[6-(1-methyl-1H-pyrazol-4-yl)pyrazolo[1,5-a]pyridin-3-yl]piperazine-1-carboxylate], the fold induction at 3 mg/kg in data set [1] stood at 10.5. The “GPR17 Fold Induction (Over Vehicle; 3 μM)” value in data set [2] was 10.56. Further, the “IC50 Values on PDGFRα Kinase Inhibition, IC50 (nM)” value against PDGFRα (11-point dose response, 10,000 nM to 0.169 nM, BLQ = below limit of quantitation) is recorded as “BLQ”. Moreover, the “MBP Fold Induction (Over vehicle)” value in data set [3] stood at 116.12.

For the compound `C[C@@H](OC(=O)N1CCN(c2cnn3cc(-c4cnn(C)c4)ccc23)CC1)c1ccccn1` [Compound 260, (1R)-1-pyridin-2-ylethyl 4-[6-(1-methyl-1H-pyrazol-4-yl)pyrazolo[1,5-a]pyridin-3-yl]piperazine-1-carboxylate], in data set [1], the fold induction at 10 mg/kg amounted to 2.79. In addition, the “GPR17 Fold Induction (Over Vehicle; 3 μM)” value in data set [2] is reported as 6.26. In addition, the IC50 at PDGFRα (setting [4]) turned out to be 377 nM. The “MBP Fold Induction (Over vehicle)” value in data set [3] is recorded as 11.66.

In the case of `Cn1cc(-c2ccc3c(N4CCN(c5ccc(Cc6ccccc6)cn5)CC4)cnn3c2)cn1` [Compound 249, 3-[4-(5-benzylpyridin-2-yl)piperazin-1-yl]-6-(1-methyl-1H-pyrazol-4-yl)pyrazolo[1,5a]pyridine], the fold induction at 30 mg/kg in data set [1] is 10.6. In data set [2], the “GPR17 Fold Induction (Over Vehicle; 3 μM)” value came out at 6.40. Further, the IC50 on PDGFRα (setting [4]) worked out at 1260 nM. The “MBP Fold Induction (Over vehicle)” value in data set [3] was 1.64.

`Cn1cc(-c2ccc3c(N4CCN(c5ncc(Cc6cccs6)cn5)CC4)cnn3c2)cn1` [Compound 178, 6-(1-methyl-1H-pyrazol-4-yl)-3-(4-(5-(thiophen-2-ylmethyl)pyrimidin-2-yl)piperazin-1-yl)pyrazolo[1,5-a]pyridine]: the fold induction at 30 mg/kg in data set [1] was 0.96. Further, the “GPR17 Fold Induction (Over Vehicle; 3 μM)” value in data set [2] was 5.98. For the same compound, the IC50 on PDGFRα (setting [4]) amounted to 2070 nM. Also, the “MBP Fold Induction (Over vehicle)” value in data set [3] is listed as 7.25.

Turning to `Cn1cc(-c2ccc3c(N4CCN(c5ncc(Cc6ccncc6)cn5)CC4)cnn3c2)cn1` [Compound 179, 6-(1-methyl-1H-pyrazol-4-yl)-3-(4-(5-(pyridin-4-ylmethyl)pyrimidin-2-yl)piperazin-1-yl)pyrazolo[1,5-a]pyridine], the fold induction at 10 mg/kg in data set [1] turned out to be 8.36. Also, the “GPR17 Fold Induction (Over Vehicle; 3 μM)” value in data set [2] was 5.37. The IC50 on PDGFRα (setting [4]) is 662 nM. Also, the “MBP Fold Induction (Over vehicle)” value in data set [3] turned out to be 10.12.

In the case of `Cn1cc(-c2ccc3c(N4CCN(C(=O)OCc5ccc(C#N)cc5)CC4)cnn3c2)cn1` [Compound 316, 4-cyanobenzyl 4-[6-(1-methyl-1H-pyrazol-4-yl)pyrazolo[1,5-a]pyridin-3-yl]piperazine-1-carboxylate], the fold induction at 3 mg/kg in data set [1] came to 2.36. In addition, in data set [2], the “GPR17 Fold Induction (Over Vehicle; 3 μM)” value was found to be 9.10. The IC50 on PDGFRα (setting [4]) was 194 nM. For the same compound, the “MBP Fold Induction (Over vehicle)” value in data set [3] was found to be 34.99.

`Cc1cccc(Cc2cnc(N3CCN(c4cnn5cc(-c6cnn(C)c6)ccc45)CC3)nc2)c1` [Compound 53, 3-{4-[5-(3-methylbenzyl)pyrimidin-2-yl]piperazin-1-yl}-6-(1-methyl-1H-pyrazol-4-yl)pyrazolo[1,5-a]pyridine]: in data set [1], the fold induction at 3 mg/kg was 1.22 and the fold induction at 30 mg/kg came to 4.64. Moreover, in data set [1] (dose not assignable from Table 10, GPR17+ cells in brain, mice), the “GPR17 Fold Induction (Over Vehicle)” value was 1.41 fold. The “GPR17 Fold Induction (Over Vehicle; 3 μM)” value in data set [2] amounted to 5.60. On PDGFRα (setting [4]), the IC50 was 249 nM. Further, in data set [3], the “MBP Fold Induction (Over vehicle)” value was determined as 1.41.

`C[C@@H](NC(=O)N1CCN(c2cnn3cc(-c4cnn(C)c4)ccc23)CC1)c1ccc(Cl)cc1` [Compound 274, N-[(1R)-1-(4-chlorophenyl)ethyl]-4-[6-(1-methyl-1H-pyrazol-4-yl)pyrazolo[1,5-a]pyridin-3-yl]piperazine-1-carboxamide]: in data set [1], the fold induction at 3 mg/kg was found to be 6.67. Besides, the “GPR17 Fold Induction (Over Vehicle; 3 μM)” value in data set [2] was 5.01 and 9.78. Further, the IC50 on PDGFRα (setting [4]) turned out to be 49 nM. Also, the “MBP Fold Induction (Over vehicle)” value in data set [3] is 24.95.

Turning to `Cn1cc(-c2ccc3c(N4CCN(c5nc(Cc6ccccc6)co5)CC4)cnn3c2)cn1` [Compound 58, 3-[4-(4-benzyl-1,3-oxazol-2-yl)piperazin-1-yl]-6-(1-methyl-1H-pyrazol-4-yl)pyrazolo[1,5-a]pyridine], in data set [1], the fold induction at 3 mg/kg was 5.5. Also, in data set [2], the “GPR17 Fold Induction (Over Vehicle; 3 μM)” value is given as 7.31. Besides, the IC50 at PDGFRα (setting [4]) is 300 nM. The “MBP Fold Induction (Over vehicle)” value in data set [3] came to 3.72.

Turning to `CCC(CC)Cc1cnc(N2CCN(c3cnn4cc(-c5cnn(C)c5)ccc34)CC2)nc1` [Compound 153, 3-(4-(5-(2-ethylbutyl)pyrimidin-2-yl)piperazin-1-yl)-6-(1-methyl-1H-pyrazol-4-yl)pyrazolo[1,5-a]pyridine], the fold induction at 3 mg/kg in data set [1] came out at 1.58. In addition, the “GPR17 Fold Induction (Over Vehicle; 3 μM)” value in data set [2] was 6.37. Besides, the IC50 at PDGFRα (setting [4]) is 1370 nM. Besides, the “MBP Fold Induction (Over vehicle)” value in data set [3] is 4.86.

`CC1CC(OC(=O)N2CCN(c3cnn4cc(-c5cnn(C)c5)ccc34)CC2)C1` (stereo not drawn) [Compound 309, 3 methylcyclobutyl 4-[6-(1-methyl-1H-pyrazol-4-yl)pyrazolo[1,5-a]pyridin-3-yl]piperazine-1-carboxylate]: the fold induction at 10 mg/kg in data set [1] is 1.2. In addition, the “GPR17 Fold Induction (Over Vehicle; 3 μM)” value in data set [2] was found to be 6.67. Besides, the IC50 at PDGFRα (setting [4]) amounted to 824 nM. Moreover, the “MBP Fold Induction (Over vehicle)” value in data set [3] worked out at 5.13.

`Cn1cc(-c2ccc3c(N4CCN(C(=O)N5CCCCC5)CC4)cnn3c2)cn1` [Compound 163, (4-(6-(1-methyl-1H-pyrazol-4-yl)pyrazolo[1,5-a]pyridin-3-yl)piperazin-1-yl)(piperidin-1-yl)methanone]: the fold induction at 3 mg/kg in data set [1] stood at 0.95. Besides, in data set [2], the “GPR17 Fold Induction (Over Vehicle; 3 μM)” value was found to be 5.84. Also, the IC50 on PDGFRα (setting [4]) amounted to 350 nM. The “MBP Fold Induction (Over vehicle)” value in data set [3] was 48.00.

In the case of `OCCn1cc(-c2ccc3c(N4CCN(c5ncc(Cc6ccccc6)cn5)CC4)cnn3c2)cn1` [Compound 55, 2-(4-{3-[4-(5-benzylpyrimidin-2-yl)piperazin-1-yl]pyrazolo[1,5-a]pyridin-6-yl}-1H-pyrazol-1-yl)ethanol], the fold induction at 3 mg/kg in data set [1] stood at 6.43. In data set [2], the “GPR17 Fold Induction (Over Vehicle; 3 μM)” value is 8.97. Also, the 50% inhibitory concentration (IC50) at PDGFRα (setting [4]) worked out at 120 nM. Besides, the “MBP Fold Induction (Over vehicle)” value in data set [3] was 5.64.

In the case of `Cn1cc(-c2ccc3c(N4CCN(C(=O)OCc5ccccc5)CC4)cnn3c2)cn1` [Compound 13, Benzyl 4-[6-(1-methyl-1H-pyrazol-4-yl)pyrazolo[1,5-a]pyridin-3-yl]piperazine-1-carboxylate], the fold induction at 3.3 mg/kg in data set [1] worked out at 1.85. Besides, the “GPR17 Fold Induction (Over Vehicle; 3 μM)” value in data set [2] was 8.42. Moreover, the “GPR17 Fold Induction (Over Vehicle; 5 μM)” value in data set [2] turned out to be 4.31. Besides, the IC50 is below 1000 nM at PDGFRα (20 ng purified PDGFRα, Poly (Glu4Tyr1) substrate, two hours, 11-point dose response, read-out: IC50 Values on PDGFRα Kinase Inhibition) and 421 nM at PDGFRα (setting [4]). Besides, the “MBP Fold Induction (Over vehicle)” value in data set [3] came to 10.24.
